Experimental data published in PMC10107027 (RSC Advances, 2023).

molecular target: T1, Neutrophil elastase enzyme (HNE) (Homo sapiens, UniProt P08246); assay: Neutrophil elastase inhibitor activity; type: biochemical; settings: read-out: Degree of HNE inhibition (Mean)
T1 sequence (P08246 30-267): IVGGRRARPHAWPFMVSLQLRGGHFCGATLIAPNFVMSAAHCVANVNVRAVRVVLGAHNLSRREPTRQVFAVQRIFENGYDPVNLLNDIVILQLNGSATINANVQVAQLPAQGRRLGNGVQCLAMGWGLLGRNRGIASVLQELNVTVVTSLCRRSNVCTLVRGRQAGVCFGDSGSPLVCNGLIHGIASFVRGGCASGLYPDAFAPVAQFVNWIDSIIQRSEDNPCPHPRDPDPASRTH

Row | SMILES | inhibition at 0.1 µM [%] | inhibition at 1 µM [%] | inhibition at 10 µM [%] | inhibition at 50 µM [%] | inhibition at 100 µM [%]
1 | NC(=S)NNC(=O)CC1C(=O)c2ccccc2C1=O [IDC2, 2-(2-(1,3-Dioxo-2,3-dihydro-1H-inden-2-yl)acetyl)hydrazine-1-carbothioamide] | 16.3 | 18.9 | 21.5 | 24.8 | 28.8
2 | O=C(CC1C(=O)c2ccccc2C1=O)NNC(=S)N=Cc1cccc([N+](=O)[O-])c1 [IDC7, 2-(2-(1,3-Dioxo-2,3-dihydro-1H-inden-2-yl)acetyl)-N-(3-nitrobenzylidene)hydrazine-1-carbothioamide] | 12 | 16.7 | 24.6 | 25.8 | 26.7
3 | NNC(=O)CC1C(=O)c2ccccc2C1=O [IDH1, 2-(1,3-Dioxo-2,3-dihydro-1H-inden-2-yl)acetohydrazide] | 18.6 | 21.6 | 28.7 | 30.1 | 36.5
4 | CC(C)(C)C(=O)Oc1ccc(S(=O)(=O)Nc2ccccc2C(=O)NCC(=O)O)cc1 [Sivelestat, reference compound] | 96.2 | 98.5 | 98.6 | 98.5 | 99.8
